Reference: ChEMBL document CHEMBL2177026, “Acyl guanidine inhibitors of β-secretase (BACE-1): optimization of a micromolar hit to a nanomolar lead via iterative solid- and solution-phase library synthesis” (J Med Chem, 2012)

Legend:
Format in all cases: cell-based
Beta-secretase 1 [1] = molecular target: T1, Beta-secretase 1 (Homo sapiens, UniProt P56817); experiment: Displacement of [3H]BMS-599240 from BACE1 expressed in HEK293 cells
Beta-secretase 1 [2] = molecular target: T1, Beta-secretase 1; experiment: Ratio of IC50 for BACE1 in HEK293 cells expressing APP 695 Swedish mutant to Ki for BACE1
Beta-secretase 1 [3] = molecular target: T1, Beta-secretase 1; experiment: Inhibition of BACE1 in human HEK293 cells expressing APP 695 Swedish mutant assessed as inhibition of amyloid beta (1 to 40) production after overnight incubation by ELISA
Beta-secretase 1 [4] = molecular target: T1, Beta-secretase 1; experiment: Inhibition of BACE1 in human KBV1 cells expressing APP 751 Swedish mutant assessed as inhibition of amyloid beta (1 to 40) production after overnight incubation by ELISA in absence of tariquidar
Beta-secretase 1 [5] = molecular target: T1, Beta-secretase 1; experiment: Inhibition of BACE1 in human KBV1 cells expressing APP 751 Swedish mutant assessed as inhibition of amyloid beta (1 to 40) production after overnight incubation by ELISA in presence of tariquidar
Beta-secretase 1 [6] = molecular target: T1, Beta-secretase 1; experiment: Ratio of IC50 for BACE1 in human KBV1 cells expressing APP 751 Swedish mutant in absence of tariquidar to IC50 for BACE1 in human KBV1 cells expressing APP 751 Swedish mutant in presence of tariquidar

T1 sequence (P56817 whole entry): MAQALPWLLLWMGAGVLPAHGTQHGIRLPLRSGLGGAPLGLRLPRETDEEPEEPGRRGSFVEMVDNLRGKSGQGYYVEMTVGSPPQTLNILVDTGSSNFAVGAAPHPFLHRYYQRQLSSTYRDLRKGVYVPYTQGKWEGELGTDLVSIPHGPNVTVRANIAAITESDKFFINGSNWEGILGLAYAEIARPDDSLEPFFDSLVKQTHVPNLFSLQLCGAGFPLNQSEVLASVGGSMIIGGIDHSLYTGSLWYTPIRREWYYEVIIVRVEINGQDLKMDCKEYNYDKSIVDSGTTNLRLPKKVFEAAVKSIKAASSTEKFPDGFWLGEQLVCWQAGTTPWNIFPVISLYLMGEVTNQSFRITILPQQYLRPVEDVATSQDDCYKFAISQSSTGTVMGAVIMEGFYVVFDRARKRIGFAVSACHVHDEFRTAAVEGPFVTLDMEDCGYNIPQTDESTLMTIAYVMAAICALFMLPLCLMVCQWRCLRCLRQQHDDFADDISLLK

Row | SMILES | Ki (Beta-secretase 1 [1]) [nM] | Ratio (Beta-secretase 1 [2]) | IC50 (Beta-secretase 1 [3]) [nM] | other results
1 | Cc1onc(-c2ccc(F)cc2)c1C(=O)/N=C(\N)NCc1ccc(Cl)c(Cl)c1 | 2400 | – | – | –
2 | COc1ccc(-c2nsc(C)c2C(=O)/N=C(\N)NCc2cc(Cl)c(NS(C)(=O)=O)c(Cl)c2)cc1 | 280 | – | – | –
3 | COc1ccc(-c2nsc(C)c2C(=O)/N=C(\N)NCc2cc(C)c(NC(C)=O)c(Cl)c2)cc1 | – | 12 | – | –
4 | COc1ccc(-c2noc(C)c2C(=O)/N=C(\N)NCc2cc(C)c(NC(=O)c3ccco3)c(Cl)c2)cc1 | 60 | 23 | 1400 | –
5 | COc1ccc(-c2nsc(C)c2C(=O)/N=C(\N)NCc2cc(C)c(NC(=O)CNCc3ccccc3)c(Cl)c2)cc1 | – | 7 | – | –
6 | Cc1onc(-c2ccc(F)cc2)c1C(=O)NC(N)=NCc1ccccc1 | > 10000 | – | – | –
7 | COc1ccc(-c2nsc(C)c2C(=O)NC(N)=NCc2cc(Cl)c(NC(=O)CN3CCC3)c(Cl)c2)cc1 | 4 | – | 8 | IC50 (Beta-secretase 1 [4]): 180 nM; IC50 (Beta-secretase 1 [5]): 8 nM
8 | COc1ccc(-c2nsc(C)c2C(=O)NC(N)=NCc2cc(Cl)c(NC(=O)CNCc3ccccc3)c(Cl)c2)cc1 | 6 | – | 140 | –
9 | CCNCC(=O)Nc1c(Cl)cc(CN/C(N)=N/C(=O)c2c(-c3ccc(OC)cc3)nsc2C)cc1Cl | 10 | 2 | 20 | –
10 | COc1ccc(-c2noc(C)c2C(=O)NC(N)=NCc2cc(C)c(NC(=O)CCSC)c(Cl)c2)cc1 | 30 | – | 640 | –
11 | COc1ccc(-c2noc(C)c2C(=O)/N=C(\N)NCc2ccccc2)cc1 | 4000 | – | – | –
12 | COc1ccc(-c2noc(C)c2C(=O)/N=C(\N)NCc2cc(Cl)cc(Br)c2)cc1 | 510 | – | – | –
13 | COc1ccc(-c2onc(C)c2C(=O)/N=C(\N)NCc2cc(Cl)cc(Cl)c2)cc1 | 860 | – | – | –
14 | COc1ccc(-c2nsc(C)c2C(=O)NC(N)=NCc2cc(C)c(NC(=O)CN(C)C)c(Cl)c2)cc1 | 20 | – | 20 | –
15 | COc1ccc(-c2nsc(C)c2C(=O)/N=C(\N)NCc2cc(Cl)cc(Cl)c2)cc1 | 290 | – | > 5000 | –
16 | COc1ccc(-c2nsc(C)c2C(=O)/N=C(/N)NCc2cc(Cl)c(N)c(Cl)c2)cc1 | 40 | – | 630 | IC50 (Beta-secretase 1 [4]): 1700 nM; IC50 (Beta-secretase 1 [5]): 1030 nM
17 | COc1ccc(-c2nsc(C)c2C(=O)/N=C(\N)NCc2cccc3ccccc23)cc1 | 500 | – | – | –
18 | COc1ccc(-c2noc(C)c2C(=O)NC(N)=NCc2cc(Cl)c(N)c(Cl)c2)cc1 | 120 | – | – | –
19 | CCCOc1c(Cl)cc(CN=C(N)NC(=O)c2c(-c3ccc(OC)cc3)noc2C)cc1Cl | > 5000 | – | – | –
20 | COc1ccc(-c2noc(C)c2C(=O)/N=C(\N)NCc2cc(C)c(NC(=O)CN(C)C)c(Cl)c2)cc1 | 50 | 2 | 90 | –
21 | COC/C=C/c1cc(Cl)cc(CN/C(N)=N/C(=O)c2c(-c3ccc(OC)cc3)noc2C)c1 | 150 | – | – | –

Row | SMILES | Ki (Beta-secretase 1 [1]) [nM] | Ratio (Beta-secretase 1 [2]) | IC50 (Beta-secretase 1 [3]) [nM] | other results
22 | COc1ccc(-c2noc(C)c2C(=O)/N=C(\N)NCc2cc(C)c(NC(=O)CCSC)c(Cl)c2)cc1 | – | 21 | – | –
23 | COc1ccc(-c2noc(C)c2C(=O)NC(N)=NCc2ccc(Cl)c(Cl)c2)cc1 | 910 | – | – | –
24 | COc1ccc(-c2noc(C)c2C(=O)/N=C(\N)NCc2cc(Cl)c(NC(=O)CSC)c(Cl)c2)cc1 | – | 40 | – | –
25 | COc1ccc(-c2noc(C)c2C(=O)/N=C(\N)NCc2cc(Cl)c(NC(=O)CN(C)C)c(Cl)c2)cc1 | 50 | 4 | 210 | –
26 | COc1ccc(-c2nsc(C)c2C(=O)/N=C(\N)NCc2cc(Cl)c(N)c(Cl)c2)cc1 | – | – | – | Ratio IC50 (Beta-secretase 1 [6]): 1.7
27 | COc1ccc(-c2nsc(C)c2C(=O)/N=C(\N)NCc2cc(Cl)c(NC(C)=O)c(Cl)c2)cc1 | 5 | 62 | 310 | IC50 (Beta-secretase 1 [4]): > 10000 nM; IC50 (Beta-secretase 1 [5]): 310 nM; Ratio IC50 (Beta-secretase 1 [6]): > 32
28 | C=Cc1cc(Cl)cc(CN/C(N)=N/C(=O)c2c(-c3ccc(OC)cc3)noc2C)c1 | 430 | – | – | –
29 | COc1ccc(-c2noc(C)c2C(=O)/N=C(\N)NCc2cc(Cl)cc(/C=C/CCO)c2)cc1 | 140 | – | – | –
30 | COc1ccc(-c2nsc(C)c2C(=O)NC(N)=NCc2cc(C)c(NC(=O)CNCc3ccccc3)c(Cl)c2)cc1 | 10 | – | 70 | –
31 | COc1ccc(-c2nsc(C)c2C(=O)/N=C(\N)NCc2cc(Cl)c(NC(=O)CNCc3ccccc3)c(Cl)c2)cc1 | – | 23 | – | –
32 | COc1ccc(-c2noc(C)c2C(=O)/N=C(\N)NCc2cc(Cl)c(NC(C)=O)c(Cl)c2)cc1 | 10 | – | 790 | –
33 | COc1ccc(-c2noc(C)c2C(=O)NC(N)=NCc2cc(Cl)cc(-c3ccsc3)c2)cc1 | 1200 | – | – | –
34 | Cc1onc(-c2ccc(F)cc2)c1C(=O)/N=C(\N)NCc1cccc2ccccc12 | 1800 | – | – | –
35 | COc1ccc(-c2noc(C)c2C(=O)/N=C(\N)NCc2cc(Cl)c(O)c(Cl)c2)cc1 | 480 | – | – | –
36 | Cc1onc(-c2ccccc2)c1C(=O)NC(N)=NCc1ccc(Cl)c(Cl)c1 | 8800 | – | – | –
37 | COc1ccc(-c2nsc(C)c2C(=O)/N=C(\N)NCc2cc(Cl)c(NC(=O)CN3CCC3)c(Cl)c2)cc1 | – | 2 | – | Ratio IC50 (Beta-secretase 1 [6]): 23
38 | COc1ccc(-c2nsc(C)c2C(=O)/N=C(\N)NCc2cc(Cl)c(NC(=O)CN(C)C)c(Cl)c2)cc1 | 20 | 4 | 70 | –
39 | CCC(=O)Nc1c(C)cc(CN=C(N)NC(=O)c2c(-c3ccc(OC)cc3)noc2C)cc1Cl | 40 | – | 780 | –
40 | COc1ccc(-c2noc(C)c2C(=O)/N=C(\N)NCc2cc(Cl)cc(-c3cccnc3)c2)cc1 | 1800 | – | – | –
41 | Cc1onc(-c2ccccc2)c1C(=O)/N=C(\N)NCc1cc(Cl)cc(Cl)c1 | 3900 | – | – | –
42 | COc1ccc(-c2noc(C)c2C(=O)/N=C(\N)NCc2cccc3ccccc23)cc1 | 1700 | – | – | –

Row | SMILES | Ki (Beta-secretase 1 [1]) [nM] | Ratio (Beta-secretase 1 [2]) | IC50 (Beta-secretase 1 [3]) [nM] | other results
43 | COc1ccc(-c2noc(C)c2C(=O)NC(N)=NCc2cc(Cl)c(NC(=O)CS(C)(=O)=O)c(Cl)c2)cc1 | 30 | – | 1900 | –
44 | COc1ccc(-c2nsc(C)c2C(=O)/N=C(\N)NCc2cc(C)c(NC(=O)CN(C)C)c(Cl)c2)cc1 | – | 1 | – | –
45 | COc1ccc(-c2nsc(C)c2C(=O)/N=C(\N)NCc2cc(C)c(NC(=O)c3ccccc3)c(Cl)c2)cc1 | 30 | 13 | 430 | –
46 | Cc1onc(-c2ccccc2)c1C(=O)/N=C(\N)NCc1ccccc1 | > 10000 | – | – | –
47 | Cc1onc(-c2ccccc2)c1C(=O)NC(N)=NCc1cccc2ccccc12 | 3900 | – | – | –
48 | CCC(=O)Nc1c(C)cc(CN/C(N)=N/C(=O)c2c(-c3ccc(OC)cc3)noc2C)cc1Cl | – | 19 | – | –
49 | COc1ccc(-c2nsc(C)c2C(=O)/N=C(\N)NCc2ccc3ccccc3c2)cc1 | 870 | – | – | –
50 | CCC/C=C/c1cc(Cl)cc(CN=C(N)NC(=O)c2c(-c3ccc(OC)cc3)noc2C)c1 | 850 | – | – | –
51 | COc1ccc(-c2[nH]nc(C)c2C(=O)/N=C(\N)NCc2cc(Cl)cc(Cl)c2)cc1 | 210 | – | – | –
52 | COc1ccc(-c2noc(C)c2C(=O)/N=C(\N)NCc2cc(C)c(NC(=O)C3CC3)c(Cl)c2)cc1 | 20 | 16 | 330 | –
53 | COc1ccc(-c2noc(C)c2C(=O)/N=C(\N)NCc2cc(C)cc(C)c2)cc1 | 280 | – | – | –
54 | Cc1onc(-c2ccc(F)cc2)c1C(=O)NC(N)=NCc1cc(Cl)cc(Cl)c1 | 2200 | – | – | –
55 | COc1ccc(-c2noc(C)c2C(=O)/N=C(\N)NCc2cc(Cl)c(NC(=O)CS(C)(=O)=O)c(Cl)c2)cc1 | – | 63 | – | –
56 | COc1ccc(-c2noc(C)c2C(=O)NC(N)=NCc2cc(Cl)c(NC(=O)CSC)c(Cl)c2)cc1 | 50 | – | 2000 | –
57 | COc1ccc(-c2noc(C)c2C(=O)/N=C(\N)NCc2cc(Cl)cc(Cl)c2)cc1 | 670 | – | 1600 | IC50 (Beta-secretase 1 [4]): 3300 nM; IC50 (Beta-secretase 1 [5]): 3900 nM; Ratio IC50 (Beta-secretase 1 [6]): 0.8
58 | CCNCC(=O)Nc1c(C)cc(CN/C(N)=N/C(=O)c2c(-c3ccc(OC)cc3)nsc2C)cc1Cl | 20 | 0.5 | 10 | –
59 | COc1ccc(-c2noc(C)c2C(=O)/N=C(\N)NCc2cc(Cl)c(NC(=O)C3CC3)c(Cl)c2)cc1 | 50 | 32 | 1600 | –
60 | COc1ccc(-c2c(C(=O)/N=C(\N)NCc3cc(Cl)cc(Cl)c3)c(C)nn2C)cc1 | 4000 | – | – | –
61 | COc1ccc(-c2nsc(C)c2C(=O)NC(N)=NCc2cc(C)c(NC(C)=O)c(Cl)c2)cc1 | 20 | – | 240 | –
